Data taken from ChEMBL document CHEMBL1201862, “PubChem BioAssay data set” (2004).
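Compound exposure: 48 hours, 5 concentrations, 96-well plates. GI50 is the concentration that inhibits growth by half.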 Active and inactive are the calls of the source. Rule as the data show it: active = GI50 up to about 1.1 µM and inactive = higher.

What was measured:
Test in all cases: growth of human tumour cells (NCI), 48 h
[1] = system: EKVX
[2] = system: CCRF-CEM
[3] = system: RPMI-8226
[4] = system: 786-0
[5] = system: HOP-62
[6] = system: OVCAR-5
[7] = system: UO-31
[8] = system: NCI-H460
[9] = system: SNB-19
[10] = system: HCC 2998
[11] = system: SK-MEL-2
[12] = system: LOX IMVI
[13] = system: U-251
[14] = system: SN12C
[15] = system: SF-539
[16] = system: A498

Measured: GI50

CN(C)c1ccc(/C=C(\C#N)C(=O)c2ccccc2)cc1Br
inactive: [1] > 100 µM | [2] 35.6 µM | [3] 25.8 µM | [4] > 100 µM | [5] 20.8 µM | [6] > 100 µM | [7] > 100 µM | [8] > 100 µM | [9] > 100 µM | [10] > 100 µM | [11] > 100 µM | [12] 25.5 µM | [13] > 100 µM | [14] > 100 µM | [15] > 100 µM

COc1ccc(O)cc1C=O
inactive: [1] > 100 µM | [2] 44 µM | [3] 60.1 µM | [4] > 100 µM | [5] > 100 µM | [6] > 100 µM | [7] > 100 µM | [16] > 100 µM | [8] > 100 µM | [9] > 100 µM | [10] > 100 µM | [12] 54 µM | [13] > 100 µM | [14] > 100 µM | [15] > 100 µM

C[C@@H]1C[C@]2(C[C@@H](C)C3[C@@H](CC4(C)[C@@H]5CCC6C(C)(C)OC(=O)C=C[C@]67C[C@@]5(CC[C@]34C)OO7)O2)OC1=O (stereo partly drawn)
inactive: [3] > 100 µM | [4] > 100 µM | [6] > 100 µM | [7] 51.8 µM | [8] 86.7 µM | [9] 49.4 µM | [10] > 100 µM | [11] 50.4 µM | [12] 44.2 µM | [13] 73.3 µM | [14] > 100 µM | [15] 35.8 µM

Nc1nc(-c2ccco2)cc(-c2ccco2)n1
inactive: [1] > 100 µM | [2] > 100 µM | [3] > 100 µM | [4] > 100 µM | [5] > 100 µM | [6] > 100 µM | [7] 42.7 µM | [8] > 100 µM | [9] 41.8 µM | [11] > 100 µM | [12] > 100 µM | [13] > 100 µM | [14] > 100 µM | [15] > 100 µM

COc1ccc(C2S/C(=C\c3cccc(O)c3)C(=O)N2NC(=O)Cc2ccccc2)cc1 (stereo not drawn)
inactive: [2] > 100 µM | [3] > 100 µM | [4] > 100 µM | [5] > 100 µM | [6] > 100 µM | [7] > 100 µM | [16] > 100 µM | [8] > 100 µM | [11] > 100 µM | [12] > 100 µM | [13] > 100 µM | [14] > 100 µM | [15] > 100 µM

O=C1c2c(c3c4ccccc4[nH]c3c3[nH]c4ccccc4c23)C(=O)N1Cc1ccccc1
inactive: [1] 5.93 µM | [2] 2.96 µM | [3] 2.36 µM | [4] 3.13 µM | [5] 3.95 µM | [6] 2.62 µM | [7] 2.53 µM | [8] 3.3 µM | [9] 2.8 µM | [10] 4.27 µM | [11] 3.2 µM | [12] 2.44 µM | [13] 2.33 µM | [14] 2.1 µM | [15] 2.37 µM

CN(C)C(=O)c1ccc([N+](=O)[O-])cc1
inactive: [1] > 100 µM | [2] > 100 µM | [4] > 100 µM | [5] > 100 µM | [6] > 100 µM | [7] > 100 µM | [16] > 100 µM | [8] > 100 µM | [9] > 100 µM | [10] > 100 µM | [11] > 100 µM | [12] > 100 µM | [13] > 100 µM | [14] > 100 µM | [15] > 100 µM

Cc1c(-c2nnc(-c3ccc(Cl)cc3)o2)c(=O)n(-c2ccccc2)n1C
inactive: [1] > 100 µM | [2] > 100 µM | [3] > 100 µM | [4] > 100 µM | [5] > 100 µM | [7] > 100 µM | [16] > 100 µM | [8] > 100 µM | [9] > 100 µM | [10] > 100 µM | [11] > 100 µM | [12] > 100 µM | [13] > 100 µM | [14] > 100 µM | [15] 3.33 µM

COc1cc(Nc2cnc3ccc(N)cc3n2)cc(OC)c1OC
inactive: [1] > 100 µM | [2] 19.8 µM | [3] 16.6 µM | [4] > 100 µM | [5] 29.2 µM | [6] > 100 µM | [7] 37.8 µM | [16] > 100 µM | [8] 69.3 µM | [9] > 100 µM | [10] > 100 µM | [11] > 100 µM | [12] 36.6 µM | [13] > 100 µM | [14] > 100 µM

C[C@]12CCC(=O)C[C@H]1CCC(O)[C@@H]2Br (stereo partly drawn)
inactive: [2] > 100 µM | [3] > 100 µM | [4] > 100 µM | [5] > 100 µM | [6] > 100 µM | [7] > 100 µM | [16] > 100 µM | [8] > 100 µM | [9] > 100 µM | [10] > 100 µM | [11] > 100 µM | [12] > 100 µM | [13] > 100 µM | [14] > 100 µM | [15] > 100 µM

CC(=O)O/N=C/c1ncccc1CO
inactive: [1] > 100 µM | [2] > 100 µM | [4] > 100 µM | [5] > 100 µM | [6] > 100 µM | [7] > 100 µM | [16] > 100 µM | [8] > 100 µM | [9] > 100 µM | [11] > 100 µM | [12] > 100 µM | [13] > 100 µM | [14] > 100 µM | [15] > 100 µM

CCOc1ccccc1/N=N/c1ccc2oc(=O)c(C(=O)Nc3cccc(C)c3)cc2c1
inactive: [1] 25.7 µM | [2] 18.7 µM | [3] 24.5 µM | [4] 34 µM | [5] 49.1 µM | [6] > 100 µM | [7] 16.6 µM | [16] 42.5 µM | [9] 20.3 µM | [10] 31.3 µM | [11] 19.8 µM | [12] 14.7 µM | [13] 25.6 µM | [14] 36.3 µM | [15] 25.8 µM

Oc1c2c(nc3cc4c(cc13)OCO4)-c1ccccc1CC2
inactive: [1] > 100 µM | [2] > 100 µM | [3] > 100 µM | [4] > 100 µM | [5] > 100 µM | [7] > 100 µM | [16] > 100 µM | [8] > 100 µM | [9] > 100 µM | [10] > 100 µM | [11] > 100 µM | [12] > 100 µM | [13] > 100 µM | [14] > 100 µM | [15] > 100 µM
